Values joined by “and” are separate entries in the source; they are usually repeats but may differ in a detail not shown here. Equal entries are not always repeated.
Key:
Type in all cases: cell-based
[1] = system: Aspergillus flavus ATCC 204 304; test: In vitro antifungal activity, filamentous fungi, NCCLS M38-A; settings: Aspergillus flavus, ATCC204
Text: (§1) The assay used for filamentous fungi (Aspergillus; Scedosporium; Fusarium) was that published by the National Committee for Clinical Laboratory Standards. 2002. Reference Method for Broth Dilution Antifungal Susceptibility Testing of Filamentous Fungi: Approved Standard. NCCLS document M38-A.Villanova, Pa., USA.

[2] = system: Aspergillus fumigatus ATCC 204 305; test: as above; settings: Aspergillus fumigatus, ATCC204
Text: as §1

[3] = system: Aspergillus terreus ATCC 03-232-378; test: as above; settings: Aspergillus terreus, ATCC03
Text: as §1

[4] = system: Fusarium solani 04-132-4207; test: as above; settings: Fusarium solani, 041324207
Text: as §1

[5] = system: Scedosporium apiospermum 1-003-056; test: as above; settings: Scedosporium apiospermum, 1003056
Text: as §1

[6] = system: Scedosporium prolificans 1-003-040; test: as above; settings: Lomentospora prolificans, 1003040
Text: as §1

dermatophyte isolates = test: Susceptibility of dermatophytes, results stated over all isolates; settings: read-out: mean MICs across all the isolates
Method: Isolates were tested using the method described in the National Committee for Clinical Laboratory Standards (NCCLS) document M38-P for filamentous fungi, with dermatophyte specific modifications described by Fernández-Torres et al, Current topics in Medical Mycology, 14-19 Feb. 1999.
Five dermatophyte isolates were, namely; T. rubrum, T. mentagrophytes, T. tonsurans, M. canis and M. gypseum, all of which produce lipases and some, phospholipase. These isolates were tested by the broth microdilution method according to NCCLS document M38-P, for activity against selected antifungal agents. In addition, ten randomly selected isolates of T. tonsurans were also tested. All isolates were maintained on SDA at 28° C. Candida parapsilosis (ATCC 20019) was used as the reference control is organism. […]
Fungal cultures were subcultured onto Potato Dextrose Agar and grown at 28° C. for 7-10 days. […] Inoculum quantification was performed by plating 100 μl of the 1:1000 dilution of the adjusted inoculum on SDA plates, incubated at 28° C., and after 7 days of incubation, the colonies were counted.
Testing was based on NCCLS M38-P document for testing filamentous moulds. […] Plates were incubated at 28° C. for 7 days, and read at 3 days and 7 days of incubation. […]
Growth in microtitre trays were read by visual inspection by using an illuminated-reversed mirror. […]

SMILES | MIC [1] | MIC [2] | MIC [3] | MIC [4] | MIC [5] | MIC [6] | MIC (dermatophyte isolates)
CCCC[N+](CCCC)(CCCC)CCCCCCCCCCCC[N+](CCCC)(CCCC)CCCC [1,12-Bis-(tributylammonium)dodecane dichloride] | 13.4 µg/mL and 22 µM | 6.7 µg/mL and 11 µM | 3.3 µg/mL and 5.5 µM | 3.3 µg/mL and 5.5 µM | 1.7 µg/mL and 2.8 µM | 3.3 µg/mL and 5.5 µM | –
CCCC[N+](CCCC)(CCCC)CCCCCCCCCCCC[N+](CCCC)(CCCC)CCCC [Compound 3, 1,12-bis(tributylammonium)do-decane dibromide] | – | – | – | – | – | – | 2.62 to 7.61 µg/mL

Reference: US7947854B2, “Bis-cationic compounds and use thereof” (The University of Sydney, priority 2003, dated 2011)
